Reference: patent publication US6465429B1, “Antimicrobial cationic peptides” (priority 1995, dated 2002)
“And” between values parts separate entries of the source, which are not always exact repeats. Equal values may be shown once. “Also recorded” adds a separate entry of the source.

Legend:
[1] = system: E. coli ML 35; test: Inner membrane permeabilization (β-galactosidase, ONPG); assay type: cell-based; details: 4 ug peptide; +5 mM Mg
Description: Inner membrane permeability was determined by measurement in E. coli ML 35 of β-galactosidase activity using ONPG as a substrate. Normally ONPG cannot pass across the cytoplasmic membrane to permit hydrolysis by the cytoplasmic enzyme β-galactosidase. However, cationic peptides, by permeabilizing the inner membrane, unmasks this enzyme leading to color development as ONP is released. […] Addition of citrate increased the lag time before the peptides were able to permeabilize the membranes. When the experiments were executed in cation adjusted media (CAMHB), the lag time was increased up to 30 minutes.

[2] = system: LPS-induced TNF in RAW 264.7 macrophage cells; test: Inhibition of LPS-mediated TNF induction in macrophages (L929 cytotoxic assay); assay type: cell-based
Description: RAW 264.7 macrophage cells were grown by seeding 10^6 cells into a 162 cm^2 cell culture flask and incubated at 37° C., 5%CO2 for 1 week. RAW cell media [(Dulbecco's Modified Eagle Medium with Hepes buffer 450 ml; 2.4 mML-glutamine 3 ml (400 mM); Pen/Strep 3 ml (10^4U/ml of Pen, 1 mg/ml strep); and 10% heat inactivated fetal bovine serum (FBS) 50 ml)] was then completely removed from flasks. 10 mls of cell dissociation solution (Sigma) was added to each flask and inc; bated at 37° C. for 10 minutes. Cells were removed from flasks, diluted in RAW cell media and centrifuged for 6 minutes. The cell pellet was resuspended in 5 ml of media/flask used, 100 μl cell suspension was removed and added to 400 ∥l of trypan blue and cells were counted using a hemocytometer. The cell suspension was diluted to 1×10^6 cells/ml and 1 ml of suspension was added per well of a 24 well plate. The 24 well plates were incubated at 37° C., 5% CO2 overnight for use in the assay.
After an overnight incubation, the media was aspirated from all the wells. 100 μl of Lipopolysaccharide (LPS) was added at 100 ng/100 μl. CEME, CEMA or MBI 29 was added at the desired concentration/100 μl to specified wells. […] The plates were then incubated for six hours at 37° C., 5% CO2. The supernatant was then removed from the wells and stored overnight at 4° C. For those wells in which whole bacteria were added directly to the wells, the supernatant was centrifuged in 0.2 μm filter eppendorf tubes for 5 minutes.
The supernatants were then used in cell cytotoxic L929 assay. The samples were transferred to 96 well plates. […]
TNF-sensitive L929 mouse fibroblast cells were grown by seeding 10^6 cells into a 162 cm^2 cell culture flask and left to grow for 1 week. […] The pellet was resuspended in 5 mls of fresh L929 media/flask and counted (same as RAW cells). […]
The plates were read at 570 nm in a ELISA plate reader with 690 nm reference filter. […]
In order to determine how rapidly the cationic peptides reduced LPS-induced TNF production, E. coli 0111:B4 was added at time 0 to RAW macrophages. […] Levels of TNF were measured after 6 hours. […]

[3] = system: RAW cells; test: RAW cell viability by Trypan blue exclusion; assay type: cell-based
[4] = system: Red Blood Cells; test: Red Blood Cell lysis; assay type: cell-based
[5] = system: P. aeruginosa; test: microbe, parasite or virus in culture; details: agent alone
Description: FICs are performed by checkerboard titrations of peptides in one dimension of a microtiter plate, and of antibiotics in the other dimension, for example. The FIC is calculated by looking at the impact of one antibiotic on the MIC of the other and vice versa. […] Preferably, an FIC of less than 0.5 is obtained for synergism. As used herein, FIC can be determined as follows: [formula]
Synergism is identified as an FIC of about ≦0.5.

[6] = system: Candida albicans; test: MIC, broth dilution in LB-S; assay type: cell-based; design: unit not given beside the values; details: Candida albicans (CAN105); Table 1a
Description: The biological activity of the peptides can be determined by standard methods known to those of skill in the art, such as “minimal inhibitory concentration (MIC)” assay described in the present examples, whereby the lowest concentration at which no change in OD is observed for a given period of time is recorded as MIC. Alternatively, “fractional inhibitory concentration (FIC)” is also useful for determination of synergy between the peptides of the invention, or the peptides in combination with known antibiotics. FICs are performed by checkerboard titrations of peptides in one dimension of a microtiter plate, and of antibiotics in the other dimension, for example. The FIC is calculated by looking at the impact of one antibiotic on the MIC of the other and vice versa. […] Preferably, an FIC of less than 0.5 is obtained for synergism. As used herein, FIC can be determined as follows: [formula]
Briefly, cells were grown overnight at 37° C. in LB-S (Luria broth without any salt supplement) and diluted one in 10,000 in the same medium to give concentrations of about 10^4 to 10^5 CFU/ml. The broth dilutions were set up in a 96 well microtiter plate by putting 200 μl of LB-S containing the initial concentration of antibiotic or compound in column 1 and 100 μl of the same medium in columns 2-12. […] The next day the plates were scored for growth in the wells, and the MIC determined.

Compound	effect of 5 mM Mg++ on inner membrane permeabilization [1]	TNF induction in washed RAW cells pre-incubated with peptide ([2]; 20 μg MBI 29 for 60 minutes, washed 3 times, then 10 ng or 100 ng LPS)	inhibition of TNF induction by LPS ([2]; E. coli 0111:B4 LPS, peptide added at 0, 30 and 60 minutes, TNF after 6 hours)	reduction of LPS-induced TNF when added after LPS ([2]; added 60 minutes after the addition of LPS)	amount causing no apparent decrease in RAW cell viability [3]	RBC Lysis [4] [µg/mL]	MIC ([5]; P. aeruginosa isolate 27, strain 14644)	MIC ([5]; P. aeruginosa isolate 28, strain 15036) [µg/mL]	MIC ([5]; Table 33, P. aeruginosa isolate 23, strain ATCC 27853) [μg · mL^1]	MIC ([5]; Table 33, P. aeruginosa isolate 24, strain 34) [μg · mL^1]	MIC ([5]; Table 33, P. aeruginosa isolate 25, strain 923-1) [μg · mL^1]	MIC ([5]; Table 33, P. aeruginosa isolate 26, strain 3101) [μg · mL^1]	MIC ([5]; Table 33, P. aeruginosa isolate 27, strain 14644) [μg · mL^1]	MIC ([5]; Table 33, P. aeruginosa isolate 28, strain 15036) [μg · mL^1]	MIC ([5]; Table 33, P. aeruginosa isolate 29, strain 15545) [μg · mL^1]	MIC ([5]; Table 33, P. aeruginosa isolate 30, strain B3999-1) [μg · mL^1]	MIC ([5]; Table 33, P. aeruginosa isolate 31, strain U7688-1) [μg · mL^1]	MIC ([5]; Table 33, P. aeruginosa isolate 32, strain W2897-1) [μg · mL^1]	MIC ([5]; Table 33, P. aeruginosa isolate 33, strain W5483-2) [μg · mL^1]	MIC [6]
CC[C@H](C)[C@H](NC(=O)[C@H](CC(C)C)NC(=O)[C@H](C)NC(=O)[C@@H]1CCCN1C(=O)[C@H](CC(C)C)NC(=O)CNC(=O)[C@@H](NC(=O)[C@@H](NC(=O)[C@H](CC(C)C)NC(=O)[C@@H](NC(=O)[C@H](CCCCN)NC(=O)[C@H](CCCCN)NC(=O)[C@@H](NC(=O)[C@H](C)NC(=O)[C@@H](NC(=O)[C@@H](NC(=O)[C@H](CC(C)C)NC(=O)[C@H](CCCCN)NC(=O)[C@H](CCCCN)NC(=O)[C@@H](NC(=O)[C@H](Cc1ccccc1)NC(=O)[C@H](CO)NC(=O)[C@H](CCCCN)NC(=O)[C@H](Cc1c[nH]c2ccccc12)NC(=O)[C@@H](N)CCCCN)[C@@H](C)CC)[C@@H](C)O)[C@@H](C)O)C(C)C)C(C)C)[C@@H](C)O)[C@@H](C)O)C(=O)N[C@@H](CO)C(=O)O [MBI 29]	the least affected by any of the conditions	14,000-20,000 Units of TNF per ml	inhibited TNF induction by LPS in a similar manner to polymyxin B	effective at reducing the ability of LPS to induce TNF; also recorded: distinct and reproducible advantage over polymyxin B	Up to 50 μg	>55	128 µg/mL and 123 µg/mL	128	32	16	32	32	32	32	32	32	32	32	32	
KWKLFKKIGIGAVLKVLTTGLPALIS [CEME]																				≧64
